Measured values as given in PubChem BioAssay AID256 (DTP/NCI, 2004).
Several values for one entry are separate records, joined by “and”; a condition that tells them apart may be missing. Equal values may be shown once. Toxic doses and inconclusive results are not listed. The calls were made as follows: active = survival T/C of 150% or more; inactive = T/C below 125% in these data.

Test system: CD2F1 mice, L1210 leukemia ip, survival T/C
Assay: NCI In Vivo Anticancer Drug Screen. Data for tumor model L1210 Leukemia (intraperitoneal) in CD2F1 (CDF1) mice
Settings: higher = longer survival
Outline: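 Mice carrying a transplanted tumor received test compound or vehicle alone. The value is the measurement in the treated group divided by that in the vehicle-treated control group.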

[1] = endpoint: mean survival time, dose: 200.0 mg/kg/injection, schedule: Q04DX003 (ip), vehicle: saline with Tween-80
[2] = endpoint: mean survival time, dose: 400.0 mg/kg/injection, schedule: Q04DX003 (ip), vehicle: saline with Tween-80
[3] = endpoint: mean survival time, dose: 100.0 mg/kg/injection, schedule: Q04DX003 (ip), vehicle: saline with Tween-80
[4] = endpoint: mean survival time, dose: 100.0 mg/kg/injection, schedule: Q01DX009 (ip), vehicle: saline with Tween-80
[5] = endpoint: mean survival time, dose: 200.0 mg/kg/injection, schedule: Q01DX009 (ip), vehicle: saline with Tween-80
[6] = endpoint: mean survival time, dose: 400.0 mg/kg/injection, schedule: Q01DX009 (ip), vehicle: saline with Tween-80

Measured: T/C

c1cn[nH]c1
inactive: endpoint: median survival time, dose: 12.5 mg/kg/injection, schedule: Q01DX009 (ip), vehicle: saline + alcohol 103 % of control and 105 % of control | endpoint: median survival time, dose: 12.5 mg/kg/injection, schedule: Q01DX009 (ip), vehicle: saline 95 % of control | endpoint: median survival time, dose: 25.0 mg/kg/injection, schedule: Q01DX009 (ip), vehicle: saline + alcohol 101 % of control and 110 % of control | endpoint: median survival time, dose: 25.0 mg/kg/injection, schedule: Q01DX009 (ip), vehicle: saline 102 % of control | endpoint: median survival time, dose: 50.0 mg/kg/injection, schedule: Q01DX009 (ip), vehicle: saline + alcohol 121 % of control and 105 % of control | endpoint: median survival time, dose: 50.0 mg/kg/injection, schedule: Q01DX009 (ip), vehicle: saline 112 % of control | endpoint: median survival time, dose: 100.0 mg/kg/injection, schedule: Q01DX009 (ip), vehicle: saline + alcohol 117 % of control | endpoint: median survival time, dose: 200.0 mg/kg/injection, schedule: Q01DX009 (ip), vehicle: saline + alcohol 90 % of control and 102 % of control | endpoint: median survival time, dose: 200.0 mg/kg/injection, schedule: Q01DX009 (ip), vehicle: saline 90 % of control

N#C/C(=C\c1ccc(-c2ccccc2)cc1)c1ccc([N+](=O)[O-])cc1
inactive: [1] 86 % of control | [2] 94 % of control

CCCCc1ccc(N/C(N)=N/c2nc(C)cc(=O)[nH]2)cc1
inactive: [3] 98 % of control | [1] 98 % of control | [2] 92 % of control

CCCCOC(=O)C1(N)CCCC1
inactive: endpoint: mean survival time, dose: 100.0 mg/kg/injection, schedule: Q04DX003 (ip), vehicle: saline 110 % of control | endpoint: mean survival time, dose: 400.0 mg/kg/injection, schedule: Q04DX003 (ip), vehicle: saline 102 % of control

CCOC(=O)Nc1cc2c(c(N)n1)N=C(c1ccc(Cl)cc1Cl)CN2
inactive: endpoint: median survival time, dose: 3.12 mg/kg/injection, schedule: Q01DX009 (ip), vehicle: saline with Tween-80 106 % of control | endpoint: median survival time, dose: 6.25 mg/kg/injection, schedule: Q01DX009 (ip), vehicle: saline with Tween-80 112 % of control | endpoint: median survival time, dose: 12.5 mg/kg/injection, schedule: Q01DX009 (ip), vehicle: saline with Tween-80 114 % of control

CCCCN(C)CCNc1cc(C)nc(Nc2nc3ccc(Cl)cc3[nH]2)n1
inactive: endpoint: mean survival time, dose: 16.5 mg/kg/injection, schedule: Q01DX009 (ip), vehicle: saline with Tween-80 88 % of control | endpoint: mean survival time, dose: 25.0 mg/kg/injection, schedule: Q01DX009 (ip), vehicle: saline with Tween-80 97 % of control | endpoint: mean survival time, dose: 37.5 mg/kg/injection, schedule: Q01DX009 (ip), vehicle: saline with Tween-80 95 % of control | endpoint: mean survival time, dose: 50.0 mg/kg/injection, schedule: Q01DX009 (ip), vehicle: saline with Tween-80 90 % of control | endpoint: mean survival time, dose: 100.0 mg/kg/injection, schedule: Q01DX001 (ip), vehicle: saline with Tween-80 90 % of control | endpoint: mean survival time, dose: 200.0 mg/kg/injection, schedule: Q01DX001 (ip), vehicle: saline with Tween-80 94 % of control

Cn1ncc2c1NC(c1ccc(F)cc1)SCC2=O (configuration not stated)
inactive: endpoint: mean survival time, dose: 25.0 mg/kg/injection, schedule: Q01DX009 (ip), vehicle: gum acacia 95 % of control and 96 % of control | endpoint: mean survival time, dose: 50.0 mg/kg/injection, schedule: Q01DX009 (ip), vehicle: gum acacia 97 % of control and 101 % of control | endpoint: mean survival time, dose: 100.0 mg/kg/injection, schedule: Q01DX009 (ip), vehicle: gum acacia 92 % of control and 95 % of control and 103 % of control | endpoint: mean survival time, dose: 200.0 mg/kg/injection, schedule: Q01DX009 (ip), vehicle: gum acacia 96 % of control and 104 % of control | endpoint: mean survival time, dose: 400.0 mg/kg/injection, schedule: Q01DX009 (ip), vehicle: gum acacia 100 % of control

OCC1OC(n2cnc3c(Cl)ncnc32)C(O)C1O (configuration not stated)
inactive: endpoint: mean survival time, dose: 12.5 mg/kg/injection, schedule: Q01DX009 (ip), vehicle: saline 86 % of control | endpoint: mean survival time, dose: 25.0 mg/kg/injection, schedule: Q01DX009 (ip), vehicle: saline 93 % of control | endpoint: mean survival time, dose: 50.0 mg/kg/injection, schedule: Q01DX009 (ip), vehicle: saline 93 % of control | endpoint: mean survival time, dose: 62.0 mg/kg/injection, schedule: Q01DX Z (ip), vehicle: carboxymethylcellulose (CMC) 97 % of control | endpoint: mean survival time, dose: 100.0 mg/kg/injection, schedule: Q01DX009 (ip), vehicle: saline 98 % of control | endpoint: mean survival time, dose: 125.0 mg/kg/injection, schedule: Q01DX Z (ip), vehicle: carboxymethylcellulose (CMC) 102 % of control | endpoint: mean survival time, dose: 200.0 mg/kg/injection, schedule: Q01DX009 (ip), vehicle: saline 92 % of control | endpoint: mean survival time, dose: 250.0 mg/kg/injection, schedule: Q01DX Z (ip), vehicle: carboxymethylcellulose (CMC) 100 % of control | endpoint: mean survival time, dose: 400.0 mg/kg/injection, schedule: Q01DX009 (ip), vehicle: saline 98 % of control | endpoint: mean survival time, dose: 500.0 mg/kg/injection, schedule: Q01DX Z (ip), vehicle: carboxymethylcellulose (CMC) 96 % of control | endpoint: median survival time, dose: 62.5 mg/kg/injection, schedule: Q01DX009 (ip), vehicle: saline 94 % of control and 100 % of control | endpoint: median survival time, dose: 125.0 mg/kg/injection, schedule: Q01DX009 (ip), vehicle: saline 100 % of control | endpoint: median survival time, dose: 250.0 mg/kg/injection, schedule: Q01DX009 (ip), vehicle: saline 88 % of control and 100 % of control | endpoint: median survival time, dose: 500.0 mg/kg/injection, schedule: Q01DX009 (ip), vehicle: saline 88 % of control

CC(C)(C)c1ccc(O)cc1
inactive: [3] 94 % of control | [1] 95 % of control | [2] 88 % of control

CC(=O)NCCc1ccccc1
inactive: endpoint: mean survival time, dose: 100.0 mg/kg/injection, schedule: Q01DX009 (ip), vehicle: Klucel (hydroxypropylcellulose) (HPC) 109 % of control | endpoint: mean survival time, dose: 100.0 mg/kg/injection, schedule: Q04DX003 (ip), vehicle: saline sonified 103 % of control | endpoint: mean survival time, dose: 200.0 mg/kg/injection, schedule: Q01DX009 (ip), vehicle: Klucel (hydroxypropylcellulose) (HPC) 102 % of control | endpoint: mean survival time, dose: 200.0 mg/kg/injection, schedule: Q04DX003 (ip), vehicle: saline sonified 109 % of control | endpoint: mean survival time, dose: 400.0 mg/kg/injection, schedule: Q01DX009 (ip), vehicle: Klucel (hydroxypropylcellulose) (HPC) 104 % of control | endpoint: mean survival time, dose: 400.0 mg/kg/injection, schedule: Q04DX003 (ip), vehicle: saline sonified 97 % of control

O=[N+]([O-])c1ccc2c(c1)CS(=O)(=O)C2
inactive: [4] 101 % of control | [3] 96 % of control | [5] 101 % of control | [1] 90 % of control | [6] 101 % of control | [2] 96 % of control

NS(=O)(=O)c1ccc(SSc2ccc(S(N)(=O)=O)cc2[N+](=O)[O-])c([N+](=O)[O-])c1
inactive: endpoint: mean survival time, dose: 12.5 mg/kg/injection, schedule: Q01DX009 (ip), vehicle: other 95 % of control | endpoint: mean survival time, dose: 25.0 mg/kg/injection, schedule: Q01DX009 (ip), vehicle: other 95 % of control | endpoint: mean survival time, dose: 50.0 mg/kg/injection, schedule: Q01DX009 (ip), vehicle: other 96 % of control | endpoint: mean survival time, dose: 100.0 mg/kg/injection, schedule: Q01DX009 (ip), vehicle: other 98 % of control | endpoint: mean survival time, dose: 200.0 mg/kg/injection, schedule: Q01DX009 (ip), vehicle: other 95 % of control

Cc1ccc(-n2c(=S)[nH]c3ccccc3c2=O)cc1
inactive: [3] 100 % of control

CC(C)(N)C(=O)O
inactive: [4] 100 % of control | [5] 101 % of control | [6] 103 % of control

CC(Sc1ccccc1)C(=O)O (configuration not stated)
inactive: endpoint: mean survival time, dose: 100.0 mg/kg/injection, schedule: Q01DX001 (ip), vehicle: saline 98 % of control | endpoint: mean survival time, dose: 200.0 mg/kg/injection, schedule: Q01DX001 (ip), vehicle: saline 102 % of control | endpoint: mean survival time, dose: 400.0 mg/kg/injection, schedule: Q01DX001 (ip), vehicle: saline 98 % of control

CC1OC(OCc2ccc(-c3ccccc3)cc2)CC(N)C1O (configuration not stated)
inactive: endpoint: mean survival time, dose: 0.78 mg/kg/injection, schedule: Q01DX001 (ip), vehicle: water 94 % of control | endpoint: mean survival time, dose: 1.56 mg/kg/injection, schedule: Q01DX001 (ip), vehicle: water 97 % of control | endpoint: mean survival time, dose: 3.13 mg/kg/injection, schedule: Q01DX001 (ip), vehicle: water 95 % of control | endpoint: mean survival time, dose: 6.25 mg/kg/injection, schedule: Q01DX001 (ip), vehicle: water 106 % of control | endpoint: mean survival time, dose: 12.5 mg/kg/injection, schedule: Q01DX001 (ip), vehicle: water 97 % of control | endpoint: mean survival time, dose: 25.0 mg/kg/injection, schedule: Q01DX001 (ip), vehicle: water 105 % of control | endpoint: median survival time, dose: 1.56 mg/kg/injection, schedule: Q04DX003 (ip), vehicle: water 106 % of control | endpoint: median survival time, dose: 3.13 mg/kg/injection, schedule: Q04DX003 (ip), vehicle: water 98 % of control | endpoint: median survival time, dose: 6.25 mg/kg/injection, schedule: Q04DX003 (ip), vehicle: water 109 % of control | endpoint: median survival time, dose: 12.5 mg/kg/injection, schedule: Q04DX003 (ip), vehicle: water 100 % of control | endpoint: median survival time, dose: 25.0 mg/kg/injection, schedule: Q04DX003 (ip), vehicle: water 106 % of control
